Here are results for 4 compounds from patent publication US11253535B2, “Carboline derivatives or phosphorous derivatives for the treatment of muscular myopathies and traumatic injuries to muscles” (Centre National de la Recherche Scientifique (C.N.R.S), priority 2015, dated 2022).

Experiment [1] has as its system mdx mouse cardiomyocytes. Nature of the experiment: Spontaneous calcium activity (spikes and calcium waves) of mdx mouse cardiomyocytes. Type of experiment: cell-based. An excerpt:
FIG. 4: Frequency of spontaneous spikes and calcium waves in WT, mdx and mdx/CD38^−/− mouse cardiomyocytes. 1-way-ANOVA test with a Bonferroni correction. Significance level set at 0.05, with a *P<0.05; **P<0.01, ***P<0.001. (A) The spontaneous calcium activity of cardiomyocytes (calcium spikes and waves) of the mdx/CD38^−/− mouse is reduced by 80% compared to the values of mdx mice. (B) The application of the CD38 CZ-27 antagonist to mdx mouse cardiomyocytes reduces the frequency of spikes by about 70%.
Evaluation of the Spontaneous Calcium Activity of Mouse Cardiomyocytes:
In the mdx cardiomyocyte, it was shown that the calcium reserves of the sarcoplasmic reticulum were reduced, probably due to Ca^2+ leakage through RyRs that are abnormally sensitized.
In order to study the impact of the absence of CD38 on these parameters, the different parameters of spontaneous spike activity and calcium waves were studied. […] The increased frequency of these spontaneous calcium events may lead to arrhythmias (when they spread to the whole heart tissue) as well as to a long-term cardiac hypertrophy associated with a change in the Ca^2+-dependent gene expression.
The protective effect of the CD38 deletion in mice was then observed by comparing cardiomyocytes of the double-mutant model with cardiomyocytes of mdx mice. The spontaneous calcium activity of mdx/CD38^−/− cardiomyocytes is very small compared to mdx (spikes and calcium waves, see FIG. 4A). […] CD38 deletion in mdx/CD38^−/− favor its protective role in DMD, with the reversal of many deleterious parameters in mdx mice (spontaneous calcium spikes and waves, sensitization of RyRs).

The test system of experiment [2] is DMD myotubes. The experiment in a line: Spontaneous calcium activity (calcium waves) in DMD patient myotubes, Fluo-4 AM, confocal microscopy. Type of experiment: cell-based, human. Conditions: for reduction in the number of myotubes with spontaneous calcium activity: DMD myotubes preincubated, 100 μM (FIG. 5D, 8D); for reduction in the amplitude of the calcium waves (oscillations): 100 μM. An excerpt:
(A) Characterization of spontaneous calcium waves in DMD myotubes. Healthy myotubes mostly show low activity (13% of myotubes), while 49% of untreated DMD myotubes show significant spontaneous calcium activity. The amplitude of calcium oscillations in untreated DMD myotubes is increased by 60% compared with healthy myotubes. (B) Examples of trace recordings of a representative region of interest in myotubes and DMDs. (C) Amplitude of spontaneous calcium oscillations in DMD myotube cultures in the presence of modulators of the CD38 enzyme pathway. […] Similarly, 8-Bromo-cADPR (cADPR antagonist, 100 μM, n=48) and NED-19 (NAADP antagonist, 100 μM, n=167) reduce by 40% the amplitude of calcium oscillations in DMD myotubes. […] The t-test was used with a significance level set at 0.05, with a *P<0.05; **P<0.01, ***P<0.001, n=cell number.
(A) DMD myotubes loaded with a calcium probe (Fluo 4). Examples of trace recordings of a representative region of interest in control DMD myotubes (B) and treated for 30 min with NAADP (100 μM) (C). […] The chi square (proportion of active cells) and t-test (mean peak amplitude) were used with a significance level set at 0.05, with a *P<0.05 ***P<0.001.
In parallel with mouse cardiomyocyte studies, two lines of human skeletal myotubes (a patient cell line with DMD and a control line) were used. Human myotubes are particularly suitable for evaluating a pharmacological tool from a therapy perspective. The inventors first tested the CZ-27, the NED-19 antagonist of NAADP (the most efficient messenger produced by CD38), and 8-bromo-cADP-ribose (a cADP-ribose antagonist produced by CD38. The cells were loaded with Fluo-4 AM and recorded by confocal microscopy.
The amplitude of the calcium waves was reduced by 40% (see FIG. 5A) compared to that of the untreated DMD myotubes. […] A 40% reduction in the amplitude of the calcium waves is also observed when the cells are treated with 100 μM of 8-Bromo-cADPR or NED-19 (see FIG. 5C). When cultures of DMD myotubes were preincubated with NED-19, the number of myotubes with spontaneous calcium activity was reduced in a dose-dependent manner for concentrations of 2 to 300 μM (60% to 100 μM reduction) (see FIG. 5D). In addition, when cultures of DMD myotubes were preincubated with NAADP at 100 μM, the number of myotubes with spontaneous calcium activity was reduced (75% reduction with 100 μM NAADP) (see FIG. 8D).

Where [3] appears, read: DMD myotubes, vs untreated DMD myotubes (FIG. 5C).

For the compound `CCCCOP(=O)(O)OC[C@@H]1O[C@H]([n+]2cccc(C(N)=O)c2)C(F)C1O` (stereo partly drawn) [CZ-27, 2′-deoxy-2′-fluoro-β-nicotinamide arabinofuranoside-5′-(n-butyl) phosphate], the “frequency of spontaneous calcium spikes” value in experiment [1] (mdx mouse cardiomyocytes (FIG. 4B)) is “reduction in spikes frequency”. The “reduction of the frequency of spontaneous calcium spikes” value in experiment [1] (mdx mouse cardiomyocytes, application of the compound (FIG. 4B)) is recorded as “about 70%”. In addition, the “amplitude of spontaneous calcium oscillations” value in experiment [2] (DMD myotubes (FIG. 5C)) was “strongly reduces”. Besides, the “reduction in the amplitude of the calcium waves, dose-dependent” value in experiment [2] (DMD myotubes preincubated with 10, 50 and 100 μM, vs untreated DMD myotubes (FIG. 5C)) is given as “up to 80%”.

On to `Nc1ncnc2c1ncn2[C@@H]1O[C@H](COP(=O)(O)OP(=O)(O)OC[C@H]2O[C@@H]([n+]3cccc(C(=O)[O-])c3)[C@H](O)[C@@H]2O)[C@@H](O)[C@H]1OP(=O)(O)O` [NAADP, nicotinic acid adenine dinucleotide phosphate], for which the “reduction in the number of myotubes with spontaneous calcium activity” value in experiment [2] is given as 75%. Further, the “percentage of cells exhibiting spontaneous calcium activity” value in experiment [2] (DMD myotubes treated 30 min, 100 μM (FIG. 8D)) is listed as “greatly reduced”. The “amplitude of the spontaneous calcium oscillations” value in experiment [2] (DMD myotubes treated 30 min, 100 μM (FIG. 8E)) is listed as “strongly reduced”.

As to `N=c1c2nc(Br)n3c2ncn1[C@H]1O[C@H](COP(=O)(O)OP(=O)(O)OC[C@H]2O[C@@H]3C(O)C2O)C(O)C1O` (some centres unmarked) [8-Bromo-cADPR, 8-bromo adenosine diphosphate cyclic ribose], the “reduction in the amplitude of the calcium waves (oscillations)” value in experiment [2] (setting [3]) worked out at 40%.

Consider `COc1ccc([C@H]2N[C@H](C(=O)O)Cc3c2[nH]c2ccccc32)cc1CN1CCN(c2ccccc2F)CC1` [NED-19, (1R, 3S)-1-[3-[[4-(2-fluorophenyl)piperazin-1-yl]methyl]-4-methoxyphenyl]-2,3,4,9-tetrahydro-1H-pyrido[3,4-b]indole-3-carboxylic acid], for which the “reduction in spontaneous calcium wave activity” value in experiment [1] (mdx mouse cardiomyocytes (FIG. 4C)) is reported as “about 90%”. The “number of cardiomyocytes exhibiting spontaneous calcium activity” value in experiment [1] (mdx mouse cardiomyocytes incubated with compound (not shown)) was “significant reduction”. In experiment [1] (mdx mouse cardiomyocytes, rare cases of spontaneous activity in presence of compound (FIG. 4C)), the “frequency of spontaneous calcium waves” value is reported as “greatly reduced”. Moreover, the “reduction in the number of myotubes with spontaneous calcium activity” value in experiment [2] is 60%. Further, the “reduction in the amplitude of the calcium waves (oscillations)” value in experiment [2] (setting [3]) was determined as 40%. Besides, the “percentage of cells with spontaneous calcium activity” value in experiment [2] (DMD myotubes, 2-300 μM (FIG. 5D)) was “strongly reduced dose-dependently”.
